Where a SMILES comes first, the peptide text is derived from it. Where no end group is shown, it is not given here. [ ]: non-standard residue; d: D form. The star is where a group is joined. Myristoyl = CCCCCCCCCCCCCC(=O)*; Nle = CCCC[C@H](N)C(=O)O; Dap = NC[C@H](N)C(=O)O
Tests used:
[1] = target: T1, rat PrRP receptor (GPR10) in RC-4B/C cells (Rattus norvegicus, UniProt Q64121); assay: Competitive binding to rat pituitary RC-4B/C cells; settings: ^125I-rat PrRP31, RC-4B/C cells
T1 construct: host or cells: RC-4B/C rat pituitary cell line
T1 sequence (Q64121 1-370): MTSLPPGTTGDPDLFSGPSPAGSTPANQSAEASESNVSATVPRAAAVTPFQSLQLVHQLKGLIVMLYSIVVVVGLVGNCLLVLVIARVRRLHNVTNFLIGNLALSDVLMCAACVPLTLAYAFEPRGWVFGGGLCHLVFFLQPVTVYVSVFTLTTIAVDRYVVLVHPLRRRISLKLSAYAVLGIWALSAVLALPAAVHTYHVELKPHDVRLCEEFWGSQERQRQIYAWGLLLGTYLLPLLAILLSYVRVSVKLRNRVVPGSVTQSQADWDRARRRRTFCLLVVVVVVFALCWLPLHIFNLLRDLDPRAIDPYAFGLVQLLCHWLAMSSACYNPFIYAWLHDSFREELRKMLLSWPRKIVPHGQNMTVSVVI

[2] = test system: MAPK/ERK1/2 signaling pathway in RC-4B/C cells; assay: MAPK/ERK1/2 signaling in RC-4B/C cells (Western blot); assay type: cell-based, rat; settings: 10^−6 mol·l^−1, 5 minute incubation
fasted C57BL/6 mice [3] = assay: Food intake in fasted mice after SC administration; assay type: in vivo, mouse; settings: for food intake / % control: SC administration, dose not stated for these substances; for % control: food intake vs saline
Procedure, shortened: (§1)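 Male C57BL/6 mice, food-deprived 17 h, received saline, PrRP or lipidated analogs either SC at 1-10 mg/kg or ICV into the third ventricle at 4 nmol/mouse.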

fasted C57BL/6 mice [4] = assay: Food intake in fasted mice after ICV administration; assay type: in vivo; settings: 4 nmol/mouse; for % control: food intake vs saline
Procedure, shortened: as §1

rats = settings: ICV, third brain ventricle, Lawrence et al.; cited from earlier work
[5] = target: T1, rat PrRP receptor (GPR10) in RC-4B/C cells; settings: Maletínská et al., 2011; cited from earlier work
Rhesus monkey = assay type: in vivo; settings: single SC 1.0 mg/kg or 2.0 mg/kg, overnight fasted, between 1-6 hours, vs saline
Procedure: Food intake (amount of pellets consumed) was measured in Rhesus monkey (n=4) after a single subcutaneous administration of myristoylated human PrRP20 (analog no. 55).
The study was conducted on overnight fasted animals in Meditox breeding facility (Konárovice, Czech Republic). Each animal received a subcutaneous injection of saline, or of analog 55 in a dose of 1.0 mg/kg or 2.0 mg/kg. Test item formulation was prepared in saline solution as a fresh solution, just before dosing. […] Food intake monitoring was performed 2, 4, 8 and 24 hours after single administration. […] While preferred embodiments of the present invention have been shown and described herein, it will be obvious to those skilled in the art that such embodiments are provided by way of example only. Numerous variations, changes, and substitutions will now occur to those skilled in the art without departing from the invention. It should be understood that various alternatives to the embodiments of the invention described herein may be employed in practicing the invention. It is intended that the following claims define the scope of the invention and that methods and structures within the scope of these claims and their equivalents be covered thereby.

fasted C57BL/6 mice [6] = settings: central administration, Maixnerová et al., 2011; cited from earlier work
[7] = target: T2, rat PrRP receptor in RC-4B/C cells (rat, UniProt Q64121 1-370); assay: competition with 125I-rat PrRP31 on RC-4B/C cells; Ki by Cheng-Prusoff
T2 construct: whole, on cells; also called the rat receptor; GPR10
T2 sequence (looked up): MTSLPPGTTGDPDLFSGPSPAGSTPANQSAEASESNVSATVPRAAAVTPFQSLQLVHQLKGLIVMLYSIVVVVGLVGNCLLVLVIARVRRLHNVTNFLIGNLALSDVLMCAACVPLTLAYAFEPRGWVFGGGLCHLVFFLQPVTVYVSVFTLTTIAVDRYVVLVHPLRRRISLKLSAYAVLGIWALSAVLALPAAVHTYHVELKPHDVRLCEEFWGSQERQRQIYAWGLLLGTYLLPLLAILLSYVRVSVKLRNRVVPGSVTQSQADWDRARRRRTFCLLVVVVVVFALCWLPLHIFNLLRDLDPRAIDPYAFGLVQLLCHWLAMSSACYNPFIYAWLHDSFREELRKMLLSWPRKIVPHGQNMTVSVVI
Procedure: The rat pituitary cell line RC-4B/C (ATCC, Manassas, USA) was grown on 24-well plates which had their bottom coated with polyethyleneimine. The cells were grown to the optimal density of 300-450 thousand per well.
Plates were incubated for 60 minutes at room temperature. After incubation, the cells were solubilized in 0.1 mol/l solution of NaOH and the radioactivity bound to the cells was counted using a γ-counter. The experiments were performed in duplicate and repeated at least three times.

[8] = target: T2, rat PrRP receptor in RC-4B/C cells; assay: competition with 125I-human PrRP31 on RC-4B/C cells; Ki by Cheng-Prusoff
[9] = target: T2, rat PrRP receptor in RC-4B/C cells; assay: competition with 125I-rat PrRP31 on RC-4B/C cells
[10] = target: T3, human PrRP receptor, GPR10, transfected in CHO cells (human, UniProt P49683 1-370); assay: competition with 125I-human PrRP31 on CHO cells with transfected human GPR10
T3 construct: whole, on cells; also called human GPR10 receptor; the human receptor GPR10 in CHO cells
T3 sequence (looked up): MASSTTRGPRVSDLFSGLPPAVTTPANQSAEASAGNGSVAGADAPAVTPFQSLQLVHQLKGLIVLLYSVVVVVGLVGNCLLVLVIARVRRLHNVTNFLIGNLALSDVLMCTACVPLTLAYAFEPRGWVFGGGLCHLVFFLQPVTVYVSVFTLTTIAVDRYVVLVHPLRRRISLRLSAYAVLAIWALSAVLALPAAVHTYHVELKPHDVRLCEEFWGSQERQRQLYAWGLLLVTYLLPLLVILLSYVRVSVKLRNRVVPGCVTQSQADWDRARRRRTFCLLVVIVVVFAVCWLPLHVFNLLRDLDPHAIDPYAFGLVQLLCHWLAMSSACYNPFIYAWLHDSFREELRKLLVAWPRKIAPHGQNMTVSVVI
Procedure, shortened: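 Incubation lasted 60 min at room temperature. Cells were then solubilised in 0.1 mol/l NaOH and bound radioactivity γ-counted; duplicates, at least three repeats.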

SRAHQHSMETRTPDINPAWYTGRGIRPVGRF-NH2 [PrRP31, reference compound]
% of PrRP31 binding [1]: 100% | ERK signaling [2]: agonist | food intake (fasted C57BL/6 mice [3]; 45 minutes): 0.32 g | % control (fasted C57BL/6 mice [3]; 45 minutes): 100% | food intake (fasted C57BL/6 mice [3]; 300 minutes): 1.15 g | % control (fasted C57BL/6 mice [3]; 300 minutes): 105% | food intake (fasted C57BL/6 mice [4]; 45 minutes): 0.42 g | % control (fasted C57BL/6 mice [4]; 45 minutes): 75% | food intake (fasted C57BL/6 mice [4]; 300 minutes): 1.37 g | % control (fasted C57BL/6 mice [4]; 300 minutes): 104% | food intake in rats (rats): significant lowering of food intake

[Tyr^31]PrRP20: N-acetylated PrRP20 analog, C-terminal phenylalanine replaced by tyrosine (Maletínská et al., 2011) (Ac-TPDINPAWYASRGIRPVGRY-NH2; ends and bridges not checked; UniProt P81277 34-53, looked up, variant F31Y)
Kb of binding to the pituitary cell line RC-4B/C [5]: comparable to values for PrRP31 and PrRP20

CCCCCCCCCCCCCC(=O)N[C@H](C(=O)N1CCC[C@H]1C(=O)N[C@@H](CC(=O)O)C(=O)N[C@H](C(=O)N[C@@H](CC(N)=O)C(=O)N1CCC[C@H]1C(=O)N[C@@H](C)C(=O)N[C@@H](Cc1c[nH]c2ccccc12)C(=O)N[C@@H](Cc1ccc(O)cc1)C(=O)N[C@@H](C)C(=O)N[C@@H](CO)C(=O)N[C@@H](CCCNC(=N)N)C(=O)NCC(=O)N[C@H](C(=O)N[C@@H](CCCNC(=N)N)C(=O)N1CCC[C@H]1C(=O)N[C@H](C(=O)NCC(=O)N[C@@H](CCCNC(=N)N)C(=O)N[C@@H](Cc1ccccc1)C(N)=O)C(C)C)[C@@H](C)CC)[C@@H](C)CC)[C@@H](C)O [Analog 55] (Myristoyl-TPDINPAWYASRGIRPVGRF-NH2)
Food intake in mice (5 mg/kg SC) % saline-treated group (45 min) (fasted C57BL/6 mice [3]; fasted C57BL/6 mice, 5 mg/kg SC, 45 min): 10% | Food intake (amount of pellets consumed) (Rhesus monkey): Significantly lower food intake

PrRP13: tridecapeptide PrRP13 (containing amino acids 18 to 31 of PrRP31) (AWYASRGIRPVGRF; ends and bridges not checked; UniProt P81277 40-53, looked up, fragment)
anorexigenic activity in mice (fasted C57BL/6 mice [6]): not sufficient for maintaining the anorexigenic activity

B1: analog no. 11 (peptide)
peptide: [Dap]RTHRHS[Nle]EIRTPDINPAWYASRGIRPVGRF-NH2
modifications: N-terminus assumed
SMILES: CCCC[C@H](NC(=O)[C@H](CO)NC(=O)[C@H](Cc1c[nH]cn1)NC(=O)[C@H](CCCNC(=N)N)NC(=O)[C@H](Cc1c[nH]cn1)NC(=O)[C@@H](NC(=O)[C@H](CCCNC(=N)N)NC(=O)[C@@H](N)CN)[C@@H](C)O)C(=O)N[C@@H](CCC(=O)O)C(=O)N[C@H](C(=O)N[C@@H](CCCNC(=N)N)C(=O)N[C@H](C(=O)N1CCC[C@H]1C(=O)N[C@@H](CC(=O)O)C(=O)N[C@H](C(=O)N[C@@H](CC(N)=O)C(=O)N1CCC[C@H]1C(=O)N[C@@H](C)C(=O)N[C@@H](Cc1c[nH]c2ccccc12)C(=O)N[C@@H](Cc1ccc(O)cc1)C(=O)N[C@@H](C)C(=O)N[C@@H](CO)C(=O)N[C@@H](CCCNC(=N)N)C(=O)NCC(=O)N[C@H](C(=O)N[C@@H](CCCNC(=N)N)C(=O)N1CCC[C@H]1C(=O)N[C@H](C(=O)NCC(=O)N[C@@H](CCCNC(=N)N)C(=O)N[C@@H](Cc1ccccc1)C(N)=O)C(C)C)[C@@H](C)CC)[C@@H](C)CC)[C@@H](C)O)[C@@H](C)CC
notes: analog of human PrRP31
Ki [7]: 2.28 nM | Ki [8]: 2 nM

SRTHRHSMEIRTPDINPAWYASRGIRPVGRF-NH2 (also called hPrRP31; analog no; 50) [Human PrRP31]
Ki [9]: 1.78 nM | Ki [7]: 1.54 nM | Ki [8]: 3.01 nM

B2: myristoylated human PrRP20 (analog no. 55) (peptide)
peptide: Myristoyl-TPDINPAWYASRGIRPVGRF-NH2
SMILES: CCCCCCCCCCCCCC(=O)N[C@H](C(=O)N1CCC[C@H]1C(=O)N[C@@H](CC(=O)O)C(=O)N[C@H](C(=O)N[C@@H](CC(N)=O)C(=O)N1CCC[C@H]1C(=O)N[C@@H](C)C(=O)N[C@@H](Cc1c[nH]c2ccccc12)C(=O)N[C@@H](Cc1ccc(O)cc1)C(=O)N[C@@H](C)C(=O)N[C@@H](CO)C(=O)N[C@@H](CCCNC(=N)N)C(=O)NCC(=O)N[C@H](C(=O)N[C@@H](CCCNC(=N)N)C(=O)N1CCC[C@H]1C(=O)N[C@H](C(=O)NCC(=O)N[C@@H](CCCNC(=N)N)C(=O)N[C@@H](Cc1ccccc1)C(N)=O)C(C)C)[C@@H](C)CC)[C@@H](C)CC)[C@@H](C)O
notes: also called analog no; 13
Ki [9]: 0.48 nM | Ki [7]: 0.41 nM | Ki [8]: 0.66 nM | Ki [10]: 4.33 nM

— patent publication US9937235B2, “Lipidated peptides as anti-obesity agents” (USTAV ORGANICKE CHEMIE A BIOCHEMIE AKADEMIE VED CR, V.V.I, priority 2012, dated 2018)
